A short description of series [1]: in vivo. As to conditions: Balb/c, mouse, po, 5 mg/kg.
Series [2] can be described thus: in vivo. The conditions noted are these: Balb/c, mouse, iv, 0.5 mg/kg.
Series [3] in a line: in vitro. As to conditions: human, Caco-2.
Series [4] is described as follows: in vivo. As to conditions: Balb/c, mouse, po, 5 mg/kg. This is another data set of the same source.
Series [5] can be described thus: in vivo. The conditions noted are these: Balb/c, mouse, po, 5 mg/kg. The source holds these as a separate data set.
Series [6] in a line: in vivo. The conditions noted are these: Balb/c, mouse, iv, 0.5 mg/kg. This is another data set of the same source.

Take `C[C@H](C(=O)N[C@H](CO)c1ccccc1)N1Cc2ccc(-c3nc(NC4CCOCC4)ncc3Cl)cc2C1=O`: the half-life – broadly, how long it takes for the measured level to halve – at 24 h in series [1] was 0.7 h. The clearance (usually the rate of elimination divided by the concentration) at 24 h in series [2] is 23 mL/min/kg. Besides, in series [3], the apparent permeability coefficient (Papp) (commonly the rate of passage across a membrane or cell layer, normalised by area and donor concentration) at 1 h, 10 µM turned out to be 13 ×10⁻⁶ cm/s. In addition, the bioavailability (commonly the share of a dose that reaches the circulation, judged against a reference dose that is usually intravenous) at 24 h in series [4] came out at 70%. Further, in series [5], the AUC (in general, the area under the concentration-time curve, a measure of exposure) at 24 h was 2600 ng·h/mL. In addition, the volume of distribution (Vd) (as a rule, a proportionality between amount in the body and measured concentration, not a real space) at 24 h in series [6] was found to be 1 L/kg.

As to `CN(C(=O)CN1Cc2ccc(-c3nc(NC4CCOCC4)ncc3Cl)cc2C1=O)C(C)(C)C`, the half-life at 24 h in series [1] was 0.7 h. In series [2], this molecule had a clearance at 24 h of 4.2 mL/min/kg. This molecule had an apparent permeability (Papp) at 1 h, 10 µM in series [3] of 22 ×10⁻⁶ cm/s. Moreover, the bioavailability at 24 h in series [4] was 30%. The same molecule came in with an area under the curve (AUC) at 24 h in series [5] of 5900 ng·h/mL. In series [6], this molecule displayed a Vd at 24 h of 0.1 L/kg.

For the molecule `Cc1cccc([C@@H](CO)NC(=O)[C@@H](C)N2Cc3ccc(-c4nc(NC5CCOCC5)ncc4Cl)cc3C2=O)c1`, the half-life at 24 h in series [1] was 0.8 h. The clearance at 24 h in series [2] was 13 mL/min/kg. Further, the apparent permeability (Papp) at 1 h, 10 µM in series [3] was determined as 6.6 ×10⁻⁶ cm/s. In series [4], this molecule returned a bioavailability at 24 h of 59%. Also, in series [5], the AUC at 24 h worked out at 3700 ng·h/mL. The molecule further returned a Vd at 24 h in series [6] of 0.6 L/kg.

The molecule `O=C(CN1Cc2ccc(-c3nc(NC4CCOCC4)ncc3Cl)cc2C1=O)NCc1ccccc1` had a half-life at 24 h in series [1] of 1 h. In series [2], the clearance at 24 h came to 3.8 mL/min/kg. For the same molecule, in series [4], the bioavailability at 24 h was 32%. The AUC at 24 h in series [5] came to 6900 ng·h/mL. Moreover, the volume of distribution (Vd) at 24 h in series [6] was found to be 0.2 L/kg.

Molecule `O=C1c2cc(-c3nc(NC4CCOCC4)ncc3Cl)ccc2CN1CCN1CCOCC1` had a half-life at 24 h in series [1] of 2 h. This molecule registered a clearance at 24 h in series [2] of 15 mL/min/kg. Also, in series [3], the apparent permeability coefficient (Papp) at 1 h, 10 µM came to 40 ×10⁻⁶ cm/s. The bioavailability at 24 h in series [4] came to 32%. For the same molecule, in series [5], the AUC at 24 h came to 1800 ng·h/mL. The molecule further yielded a Vd at 24 h in series [6] of 0.2 L/kg.

For the molecule `CC(C)(C)NC(=O)CN1Cc2ccc(-c3nc(NC4CCOCC4)ncc3Cl)cc2C1=O`, the half-life at 24 h in series [1] is 1 h. In addition, the clearance at 24 h in series [2] is 14 mL/min/kg. For the same molecule, in series [3], the apparent permeability coefficient (Papp) at 1 h, 10 µM stood at 17 ×10⁻⁶ cm/s. Also, the bioavailability at 24 h in series [4] was found to be 8%. Moreover, in series [5], the AUC at 24 h turned out to be 530 ng·h/mL. Besides, in series [6], the Vd at 24 h is 0.2 L/kg.

Molecule `COCCN1Cc2ccc(-c3nc(NC4CCOCC4)ncc3Cl)cc2C1=O` showed a half-life at 24 h in series [1] of 1 h. In series [2], this molecule had a clearance at 24 h of 17 mL/min/kg. The molecule further registered an apparent permeability (Papp) at 1 h, 10 µM in series [3] of 19 ×10⁻⁶ cm/s. Also, the bioavailability at 24 h in series [4] worked out at 1%. In series [5], the area under the curve (AUC) at 24 h was 50 ng·h/mL. In series [6], this molecule came in with a Vd at 24 h of 0.05 L/kg.

Molecule `O=C(CN1Cc2ccc(-c3nc(NC4CCOCC4)ncc3Cl)cc2C1=O)NC(CO)c1ccccc1` (single isomer, unassigned) showed a half-life at 24 h in series [1] of 3 h. Besides, the clearance at 24 h in series [2] is 11 mL/min/kg. The Papp at 1 h, 10 µM in series [3] is 0.7 ×10⁻⁶ cm/s. This molecule had a bioavailability at 24 h in series [4] of 41%. This molecule yielded an area under the curve (AUC) at 24 h in series [5] of 3000 ng·h/mL. For the same molecule, the Vd at 24 h in series [6] turned out to be 0.6 L/kg.

Values taken from ChEMBL document CHEMBL4184340, “Fragment-Based Discovery of a Potent, Orally Bioavailable Inhibitor That Modulates the Phosphorylation and Catalytic Activity of ERK1/2” (J Med Chem, 2018).
